Test results: PubChem BioAssay AID743494 (The Scripps Research Institute Molecular Screening Center, 2014)
The source made the active and inactive calls. No rule for the calls is given here.

System: Ga16 counterscreen cells, calcium fluorescence antagonism
Assay: nonselective Ga16 antagonists, potency, SAR follow-up, counter-screen for TAAR1 agonist project, cell-based, fluorescence, dose response, MedChem round 1 (AID 743494)

Question: For `O=C(CCN1CCC(O)(c2ccccc2)C1)c1ccc2c(c1)OCCO2` (stereo unspecified), which IC50 is on record?
Answer: The IC50 was > 29.9 µM (inactive).

Question: For `O=C(CCN1C[C@@H](C(=O)O)[C@H](c2ccccc2)C1)NC1CCCC1`, which IC50 is on record?
Answer: The IC50 was > 29.9 µM (inactive).

Question: How did the IC50 turn out when `NC(=O)CCN1C[C@H](c2ccccc2)[C@@H]2[C@H]1C1CCN2CC1` was run?
Answer: The IC50 was > 29.9 µM (inactive).

Question: For `O=C(CCN1C[C@@H](C(=O)O)[C@H](c2cccc(F)c2)C1)NC1CC1`, which IC50 is on record?
Answer: Its IC50 is > 29.9 µM (inactive).

Question: `CC1CN(CCC(=O)c2ccc3c(c2)OCCO3)CC1c1ccccc1` (stereo unspecified) was tested. Which IC50 did it give?
Answer: The IC50 was > 29.9 µM (inactive).

Question: How did the IC50 turn out when `O=C(CCN1CCC(c2ccccc2)C1)c1ccccc1` (stereo unspecified) was run?
Answer: Its IC50 is > 29.9 µM (inactive).

Question: For `O=C(CCN1CCC(O)(c2ccc(F)cc2)C1)c1ccc2c(c1)OCCO2` (stereo unspecified), which IC50 is on record?
Answer: The IC50 was > 29.9 µM (inactive).

Question: For `CC(CN1CCC(c2ccccc2)C1)C(=O)c1ccc2c(c1)OCCO2` (stereo unspecified), which IC50 is on record?
Answer: The IC50 was > 29.9 µM (inactive).

Question: `CC(CN1CCCC1Cc1ccccc1)C(=O)c1ccc2c(c1)OCCO2` (stereo unspecified) was tested. Which IC50 did it give?
Answer: Its IC50 is > 29.9 µM (inactive).

Question: For `O=C(CCN1C[C@@H](C(=O)O)[C@H](c2ccccc2)C1)NCc1cccs1`, which IC50 is on record?
Answer: Its IC50 is > 29.9 µM (inactive).

Question: Which IC50 does the source give for `Cc1ccc(C(=O)CCN2CCC(c3ccccc3)C2)cc1` (stereo unspecified) here?
Answer: The IC50 was > 29.9 µM (inactive).
